# Measurements from publication PMC10224004, “Modulation of Distribution and Diffusion through the Lipophilic Membrane with Cyclodextrins Exemplified by a Model Pyridinecarboxamide Derivative” (Pharmaceutics, 2023).
# Read-outs that look alike come from different tables or passages of the source.
# How the values were obtained:
# [1] = Association constant of IPN with cyclodextrin by phase-distribution method; type: binding; conditions: 310.2 K
# Method: The association constants (KC) of IPN with cyclodextrins were determined by a partition coefficient (phase-distribution) method. Possible partition of CDs to the 1-octanol or n-hexane phases was assumed to be negligible since both cyclodextrins used in this study have high aqueous solubility (>600 mg∙mL^−1). The KC values of the complexes between the drug and each CD were calculated assuming that in the presence of CD the distribution coefficient ( DappOrg/(buf+CD) ) is defined as:(8) DappOrg/(buf+CD)=C2Org/C2buf(drug)+C2buf(drug•CD) where C2buf(drug) and C2buf(drug•CD) are the concentrations of the drug and drug complex with CD in the aqueous phase. The following equation was applied:(9) DappOrg/(buf+CD)/DappOrg/buf=1+KC⋅CCD where DappOrg/buf and DappOrg/(buf+CD) are the distribution coefficients of a compound in the absence and in the presence of CD in the aqueous phase, respectively. Similarly to the phase-solubility method of the stability constants determination, but bearing in mind an opposite trends in solubility and organic solvent/water partition (the higher the solubility, the lower the distribution coefficient), the following dependence was plotted to obtain the association constant (KC) and the stoichiometric ratio of the complex (α):(10) log(DappOrg/buf−DappOrg/(buf+CD)/DappOrg/buf)=log(KC)+α⋅log(CCD) where CCD is the concentration of cyclodextrin in the aqueous phase of the distribution system and the y-intercept produces log(KC).
# To approve the validity of the distribution results interpretation we used the distribution coefficients at different CDs concentrations for the determination of the association constants of IPN with the studied cyclodextrins. As shown by Másson et al. for hydrophilic drugs (a case of IPN), this method can be successfully used for the simultaneous determination of the association constant with cyclodextrins and partition coefficient. The association constants (KC) of IPN with HP-β-CD and M-β-CD were determined according to the phase-distribution method using Equations (8)–(10). To this end, the plots of the dependences (Equation (10)) were constructed and are illustrated in Figure 6.
# [2] = Membrane permeability in Franz diffusion cell; type: in vitro ADME; conditions: for Papp at 5 h: pH 7.4, PermeaPad barrier, read-out: permeability coefficient (Papp)
# Method: Membrane permeability coefficients of the studied drugs were measured in the Franz diffusion cell of vertical type (PermeGear, Inc., Hellertown, PA, USA) with 7 mL/1 mL volumes of the donor and acceptor solutions through the reverse dialysis set up. The PermeaPad barrier (PHABIOC, Fritz-Souchon-Str.27 32339 Espelkamp Germany, www.innome.de) (0.785 cm^2 effective surface area) was mounted between the donor and acceptor chambers of the diffusion cell. The temperature was maintained at 310.2 ± 0.5 K throughout the experiment. Samples of 0.5 mL were withdrawn each 30 min from the acceptor solution and replaced with an equal amount of fresh buffer. Permeability experiments lasted over five hours in all cases. The solutions concentrations were analyzed via spectrophotometer (Spectramax 190; Molecular Devices Corporation, San Jose, CA, USA) in 96-well UV black plates (Costar) at a wavelength of 264 nm and 266 nm for IPN and INZ/iNAM, respectively. The dependences of the amount of the permeated drug over the surface area (dQ/A) on time (t) were plotted and flux (J) across the membrane was calculated by the equation:(11) J=dQ/A×dt The apparent permeability coefficients (Papp) were determined by normalizing the flux measured over the concentration of the drug in the donor compartment (C0) by the equation:(12) Papp=J/C0 Each permeability experiment was carried out in triplicate.
# Similarly to the distribution, the permeability coefficients were obtained in the absence (for IPN, and iNAM) and in the presence of cyclodextrins (HP-β-CD and M-β-CD) (for IPN only) in the donor solution. The concentrations of cyclodextrins were 0.0115 M, 0.025 M and 0.035 M. The permeability coefficient for INZ through the PermeaPad barrier was determined in our previous investigation and taken in the present study for the sake of comparison.
# [3] = Shake-flask solubility in 1-octanol and dissolution thermodynamics; type: physicochemical; conditions: T 290.2 K; value = S2 × 10^1
# [4] = Shake-flask solubility in n-hexane and dissolution thermodynamics; type: physicochemical; conditions: T 290.2 K; value = S2 × 10^3
# [5] = set-up: method as in PMID 12750026; conditions: 293.2 K (20 °C); cited from earlier work
# [6] = from 1-Octanol/Buffer pH 7.4 System
# [7] = from n-hexane/buffer pH 7.4 system
compound,measurement,setting,value
"CC(C)NNC(=O)c1ccncc1 [IPN, N′-isopropyl isonicotinic hydrazide]",Association constant KC of IPN complex with HP-β-CD,[1]; [6],0.899 ± 0.022
same,Association constant KC of IPN complex with M-β-CD,[1]; [6],0.479 ± 0.109
same,"α (parameter indicating the complex stoichiometry), IPN with HP-β-CD",[1]; [6],1.004 ± 0.014
same,"α (parameter indicating the complex stoichiometry), IPN with M-β-CD",[1]; [6],1.000 ± 0.065
same,Association constant KC of IPN complex with HP-β-CD,[1]; [7],1.536 ± 0.128
same,Association constant KC of IPN complex with M-β-CD,[1]; [7],1.311 ± 0.241
same,"α (parameter indicating the complex stoichiometry), IPN with HP-β-CD",[1]; [7],1.087 ± 0.076
same,"α (parameter indicating the complex stoichiometry), IPN with M-β-CD",[1]; [7],1.057 ± 0.143
same,steady penetrate rate - flux J∙10^4,"[2]; PermeaPad barrier, 310.2 K, pH 7.4, printed value = J × 10^4, cyclodextrin in donor solution as in the label",1.25 ∙10^4 (μM∙cm‐2∙s‐1)
same,Papp∙10^5,"[2]; PermeaPad barrier, 310.2 K, pH 7.4, value = Papp × 10^5, cyclodextrin in donor solution as in the label",2.03±0.05 ∙10^5 (cm∙s‐1)
same,Papp at 5 h,"[2]; 310.2 K, without cyclodextrins",20.3 ×10⁻⁶ cm/s
same,Papp at 5 h,[2]; enhancement in the presence of M-β-CD in donor solution (highest value reached),≤ 28.7 ×10⁻⁶ cm/s
same,Papp at 5 h,[2]; slight decrease upon growing HP-β-CD concentration in donor solution (lowest value reached),≥ 17.8 ×10⁻⁶ cm/s
same,Molar solubility S2 × 10^1 in 1-Octanol,[3],4.09 ± 0.08 × 10^1 (M)
same,Molar solubility S2 × 10^3 in n-Hexane,[4],0.72 ± 0.01 × 10^3 (M)
same,log Dexpoct/pH7.4,[5],0.35 ± 0.10
